Assays:
[1] = Plasma protein binding in mouse incubated for 15 mins by LC-MS/MS analysis; format: ADME, cell-free; conditions: read-out: PPB (converted)
Mus musculus [2] = assay: In-vivo PROTAC activity at BRM/VHL in CD-1 mouse xenografted with human HCC2302 cells at 20 mg/kg, iv measured for 96 hrs; format: functional
Mus musculus [3] = assay: In-vivo PROTAC activity at BRM/VHL in CD-1 mouse xenografted with Murine stromal cell line at 20 mg/kg, iv measured for 96 hrs; format: functional
[4] = target: von Hippel-Lindau disease tumor suppressor/SWI/SNF-related matrix-associated actin-dependent regulator of chromatin subfamily A member 4 (Homo sapiens, UniProt P51532+P40337); assay: PROTAC activity at VHL/ BRG1 in human SW1573 cells assessed as induction of BRG1 degradation incubated for 22 hrs by Western blotting analysis; format: cell-based
Chain of von Hippel-Lindau disease tumor suppressor/SWI/SNF-related matrix-associated actin-dependent regulator of chromatin subfamily A member 4 (P51532 whole entry): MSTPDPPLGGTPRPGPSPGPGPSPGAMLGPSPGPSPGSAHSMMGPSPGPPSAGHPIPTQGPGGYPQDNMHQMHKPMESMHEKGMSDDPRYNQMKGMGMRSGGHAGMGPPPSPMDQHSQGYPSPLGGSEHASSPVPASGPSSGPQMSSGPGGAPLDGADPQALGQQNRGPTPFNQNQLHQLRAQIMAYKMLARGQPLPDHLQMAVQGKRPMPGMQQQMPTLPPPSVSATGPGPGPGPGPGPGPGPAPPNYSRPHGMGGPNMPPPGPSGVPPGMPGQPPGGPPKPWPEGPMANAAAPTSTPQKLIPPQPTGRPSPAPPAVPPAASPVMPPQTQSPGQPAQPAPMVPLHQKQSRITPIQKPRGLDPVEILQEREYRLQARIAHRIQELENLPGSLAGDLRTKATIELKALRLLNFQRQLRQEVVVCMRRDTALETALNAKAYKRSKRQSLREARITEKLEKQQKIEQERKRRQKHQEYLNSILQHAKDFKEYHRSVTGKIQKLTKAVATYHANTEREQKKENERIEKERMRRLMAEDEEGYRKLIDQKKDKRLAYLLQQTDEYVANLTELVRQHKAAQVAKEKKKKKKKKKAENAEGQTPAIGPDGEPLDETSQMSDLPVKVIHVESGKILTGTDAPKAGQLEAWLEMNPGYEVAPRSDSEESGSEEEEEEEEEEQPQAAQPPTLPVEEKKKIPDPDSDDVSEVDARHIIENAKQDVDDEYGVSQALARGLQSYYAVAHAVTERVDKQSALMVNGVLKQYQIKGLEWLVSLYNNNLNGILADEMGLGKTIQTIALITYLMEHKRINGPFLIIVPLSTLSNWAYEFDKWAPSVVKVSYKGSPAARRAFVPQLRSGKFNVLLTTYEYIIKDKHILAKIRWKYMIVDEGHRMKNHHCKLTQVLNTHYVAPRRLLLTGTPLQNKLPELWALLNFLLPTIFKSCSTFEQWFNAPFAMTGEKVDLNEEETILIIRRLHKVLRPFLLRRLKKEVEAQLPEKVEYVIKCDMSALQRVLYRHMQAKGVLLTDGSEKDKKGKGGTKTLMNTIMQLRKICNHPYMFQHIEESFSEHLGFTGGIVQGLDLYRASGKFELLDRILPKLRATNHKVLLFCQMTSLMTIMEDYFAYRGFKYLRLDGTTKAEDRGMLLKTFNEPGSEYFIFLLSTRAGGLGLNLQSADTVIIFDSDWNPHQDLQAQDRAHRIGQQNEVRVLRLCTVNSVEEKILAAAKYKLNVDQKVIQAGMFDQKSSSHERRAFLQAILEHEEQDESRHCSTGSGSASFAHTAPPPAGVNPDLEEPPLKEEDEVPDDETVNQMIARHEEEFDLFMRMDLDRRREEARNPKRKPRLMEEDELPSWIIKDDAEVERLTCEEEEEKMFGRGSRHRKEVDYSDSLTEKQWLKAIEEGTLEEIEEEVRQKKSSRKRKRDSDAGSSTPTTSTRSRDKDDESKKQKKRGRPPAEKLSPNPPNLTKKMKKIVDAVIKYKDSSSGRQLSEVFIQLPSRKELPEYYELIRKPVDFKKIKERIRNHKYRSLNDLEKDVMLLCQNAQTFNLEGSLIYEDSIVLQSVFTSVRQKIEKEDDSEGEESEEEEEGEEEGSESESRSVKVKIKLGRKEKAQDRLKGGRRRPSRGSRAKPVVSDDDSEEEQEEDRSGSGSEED
Chain of von Hippel-Lindau disease tumor suppressor/SWI/SNF-related matrix-associated actin-dependent regulator of chromatin subfamily A member 4 (P40337 whole entry): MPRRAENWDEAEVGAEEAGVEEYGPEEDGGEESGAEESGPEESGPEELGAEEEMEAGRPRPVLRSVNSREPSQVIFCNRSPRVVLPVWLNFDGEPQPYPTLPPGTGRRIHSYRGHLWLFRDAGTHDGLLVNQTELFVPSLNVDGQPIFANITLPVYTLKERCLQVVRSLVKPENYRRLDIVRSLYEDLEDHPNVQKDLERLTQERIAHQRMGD

[5] = Metabolic stability in human liver microsome assessed as hepatic extraction ratio measured upto 60 mins by LC-MS/MS analysis; format: ADME; conditions: liver microsomes
[6] = target: T1, von Hippel-Lindau disease tumor suppressor/SWI/SNF-related matrix-associated actin-dependent regulator of chromatin subfamily A member 2 (Homo sapiens, UniProt P51531+P40337); assay: PROTAC activity at VHL/BRM in human SW1573 cells assessed as induction of […] incubated for 22 hrs by Western blotting analysis; format: cell-based
Target sequence in this assay (P51531 whole entry): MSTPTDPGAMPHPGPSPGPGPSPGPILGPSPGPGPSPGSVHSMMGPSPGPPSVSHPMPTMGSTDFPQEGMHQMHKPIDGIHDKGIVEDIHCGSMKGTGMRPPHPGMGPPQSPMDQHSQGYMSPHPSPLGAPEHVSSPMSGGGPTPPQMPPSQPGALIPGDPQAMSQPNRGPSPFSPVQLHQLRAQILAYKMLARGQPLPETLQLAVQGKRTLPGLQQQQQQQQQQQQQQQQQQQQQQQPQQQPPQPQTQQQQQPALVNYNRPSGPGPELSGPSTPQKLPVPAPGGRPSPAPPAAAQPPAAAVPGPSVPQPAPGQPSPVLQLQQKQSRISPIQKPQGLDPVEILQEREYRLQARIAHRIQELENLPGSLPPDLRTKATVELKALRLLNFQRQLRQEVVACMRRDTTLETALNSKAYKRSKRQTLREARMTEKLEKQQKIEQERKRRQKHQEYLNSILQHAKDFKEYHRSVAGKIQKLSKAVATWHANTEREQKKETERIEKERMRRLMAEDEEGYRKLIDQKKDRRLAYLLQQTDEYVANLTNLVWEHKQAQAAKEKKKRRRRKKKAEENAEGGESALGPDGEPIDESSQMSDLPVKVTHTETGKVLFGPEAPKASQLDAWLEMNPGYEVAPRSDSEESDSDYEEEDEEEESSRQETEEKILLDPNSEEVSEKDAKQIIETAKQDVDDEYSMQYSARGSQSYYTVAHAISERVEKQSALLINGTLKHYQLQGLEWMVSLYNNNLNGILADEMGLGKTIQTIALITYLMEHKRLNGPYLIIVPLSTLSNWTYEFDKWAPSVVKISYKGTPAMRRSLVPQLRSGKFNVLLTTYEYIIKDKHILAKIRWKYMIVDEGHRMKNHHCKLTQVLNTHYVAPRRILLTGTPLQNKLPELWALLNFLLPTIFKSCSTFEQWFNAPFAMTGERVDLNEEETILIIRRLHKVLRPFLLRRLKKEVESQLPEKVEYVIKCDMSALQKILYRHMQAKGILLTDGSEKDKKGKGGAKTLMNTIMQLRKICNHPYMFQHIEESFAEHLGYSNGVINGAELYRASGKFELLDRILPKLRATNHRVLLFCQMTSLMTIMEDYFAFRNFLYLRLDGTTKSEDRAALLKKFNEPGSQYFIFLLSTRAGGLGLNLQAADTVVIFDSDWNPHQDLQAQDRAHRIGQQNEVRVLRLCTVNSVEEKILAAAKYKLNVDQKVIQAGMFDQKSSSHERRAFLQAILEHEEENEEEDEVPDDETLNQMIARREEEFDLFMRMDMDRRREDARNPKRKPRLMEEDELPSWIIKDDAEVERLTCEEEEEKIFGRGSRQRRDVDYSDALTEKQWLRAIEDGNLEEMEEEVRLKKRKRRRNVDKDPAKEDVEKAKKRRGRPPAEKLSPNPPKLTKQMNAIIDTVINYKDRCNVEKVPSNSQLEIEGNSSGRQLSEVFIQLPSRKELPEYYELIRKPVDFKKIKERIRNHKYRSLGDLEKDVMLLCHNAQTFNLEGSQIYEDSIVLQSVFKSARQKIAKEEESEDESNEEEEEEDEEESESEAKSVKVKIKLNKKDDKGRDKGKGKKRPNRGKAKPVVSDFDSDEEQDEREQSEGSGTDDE
Target sequence in this assay (P40337 whole entry): as the sequence (P40337 whole entry) above

[7] = Half life in mouse at 1 mg/kg, iv measured upto 60 mins by LC-MS/MS analysis; format: ADME, organism-based; conditions: in vivo
Calu-6 = assay: Antiproliferative activity against human Calu-6 cells assessed as growth inhibition incubated for 7 days by celltiter glo 2.0 assay; format: functional; conditions: Calu-6, 168 h, time 7 day
NCI-H1944 = assay: Antiproliferative activity against BRM-dependent human NCI-H1944 cells assessed as growth inhibition incubated for 7 days by celltiter glo 2.0 assay; format: functional; conditions: NCI-H1944, 168 h, time 7 day
[8] = Clearance in mouse at 1 mg/kg, iv measured upto 60 mins by LC-MS/MS analysis; format: ADME, organism-based; conditions: in vivo, 1 h
[9] = target: T2, SWI/SNF-related matrix-associated actin-dependent regulator of chromatin subfamily A member 2 (Homo sapiens, UniProt P51531); assay: Binding affinity to his-tagged BRM bromodomain (unknown origin) by alpha-LISA assay
T2 sequence (P51531 whole entry): as the sequence (P51531 whole entry) above

[10] = Drug concentration in mouse tumor at 20 mg/kg, ip measured for 96 hrs; format: ADME, organism-based, Neoplasm; conditions: read-out: Ct
[11] = Drug concentration in mouse plasma measured for 24 hrs; format: ADME, cell-free
Homo sapiens [12] = species on record: Homo sapiens; assay: Ratio of DC50 for VHL/ BRG1 in human SW1573 cells to DC50 for VHL/BRM in human SW1573 cells; format: cell-based
[13] = target: T1, von Hippel-Lindau disease tumor suppressor/SWI/SNF-related matrix-associated actin-dependent regulator of chromatin subfamily A member 2
Target sequence in this assay (P40337 whole entry, looked up): as the sequence (P40337 whole entry) above
Target sequence in this assay (P51531 whole entry, looked up): as the sequence (P51531 whole entry) above

Homo sapiens [14] = species on record: Homo sapiens; assay: Ratio of binding affinity to VHL/BRM bromodomain (unknown origin) assessed as ternary complex association half life by SPR analysis to binding affinity to VHL/ BRG1 bromodomain (unknown origin) assessed as ternary complex association half life by SPR analysis
[15] = target: T2, SWI/SNF-related matrix-associated actin-dependent regulator of chromatin subfamily A member 2; assay: Binding affinity to his-tagged BRM bromodomain (unknown origin) assessed as dissociation constant

SMILES	fraction unbound at 0.25 h [1]	Activity (Mus musculus [2]) [%]	Activity (Mus musculus [3]) [%]	DC50 [4] [nM]	hepatic extraction ratio at 1 h [5]	DC50 [6] [nM]	half-life [7] [h]	GI50 (Calu-6) [nM]	GI50 (NCI-H1944) [nM]	clearance [8] [mL/min/kg]	IC50 [9] [nM]	concentration at 96 h [10] [ng/g]	concentration at 24 h [11] [nM]	Ratio (Homo sapiens [12])	T1/2 [13] [s]	Ratio (Homo sapiens [14])	Kd [15] [nM]
Cc1ncsc1-c1ccc([C@H](C)NC(=O)[C@@H]2C[C@@H](O)CN2C(=O)[C@@H](c2cc(N3CCN(CC4CCN(C[C@H]5C[C@H](Oc6cc(N7C8CCC7CN(c7cc(-c9ccccc9O)nnc7N)C8)ccn6)C5)CC4)CC3)no2)C(C)C)cc1	0.035	95	83	1.4	0.15	0.062	17	10	0.72	12							
COc1cc(N2C3CCC2CN(c2cc(-c4ccccc4O)nnc2N)C3)ccn1								> 300	> 300		1.2						
COc1cc(N2CCN(c3cc(-c4ccccc4O)nnc3N)CC2)ccn1								> 300	> 300		18						
Cc1ncsc1-c1ccc([C@H](C)NC(=O)[C@@H]2C[C@@H](O)CN2C(=O)[C@@H](c2cc(N3CCC(O[C@H]4C[C@H](Oc5cc(N6C7CCC6CN(c6cc(-c8ccccc8O)nnc6N)C7)ccn5)C4)CC3)no2)C(C)C)cc1	0.019	70	22	1.8	0.14	0.14	1.4	4.4	0.3	9.2		175	112	13			
Cc1ncsc1-c1ccc(CNC(=O)[C@@H]2C[C@@H](O)CN2C(=O)[C@@H](c2cc(OCCOCCOCCOc3cc(N4C5CCC4CN(c4cc(-c6ccccc6O)nnc4N)C5)ccn3)no2)C(C)C)cc1				5.9		0.76								2.2			
Cc1ncsc1-c1ccc([C@H](C)NC(=O)[C@@H]2C[C@@H](O)CN2C(=O)[C@@H](c2cc(N3CCN(CCN4CCC(O[C@H]5C[C@H](Oc6cc(N7C8CCC7CN(c7cc(-c9ccccc9O)nnc7N)C8)ccn6)C5)CC4)CC3)no2)C(C)C)cc1	0.034	56	28	3.2	0.4	0.085	13	11	1.3	9.6		840	108	38			
COCCOc1cc(N2C3CCC2CN(c2cc(-c4ccccc4O)nnc2N)C3)ccn1											2.7						
Cc1ncsc1-c1ccc(CNC(=O)[C@@H]2C[C@@H](O)CN2C(=O)[C@@H](NC(=O)COCCOCCOCCOc2cc(N3C4CCC3CN(c3cc(-c5ccccc5O)nnc3N)C4)ccn2)C(C)(C)C)cc1				703		32								7.8			
Cc1ncsc1-c1ccc([C@H](C)NC(=O)[C@@H]2C[C@@H](O)CN2C(=O)[C@@H](c2cc(OCCN3CCN(CCOc4cc(N5C6CCC5CN(c5cc(-c7ccccc7O)nnc5N)C6)ccn4)C[C@@H]3C)no2)C(C)C)cc1				2.7	0.83	0.11		38	0.72					25			
Cc1ncsc1-c1ccc([C@H](C)NC(=O)[C@@H]2C[C@@H](O)CN2C(=O)[C@@H](c2cc(N3CCC(CN4CCC(Oc5cc(N6C7CCC6CN(c6cc(-c8ccccc8O)nnc6N)C7)ccn5)CC4)CC3)no2)C(C)C)cc1	0.006	83	59	0.99	0.41	0.053	6.7	3.7	0.23	6.7		774					
Cc1ncsc1-c1ccc(CNC(=O)[C@@H]2C[C@@H](O)CN2C(=O)[C@@H](c2cc(OCCN3CCN(CCOc4cc(N5C6CCC5CN(c5cc(-c7ccccc7O)nnc5N)C6)ccn4)CC3)no2)C(C)C)cc1	0.015			9.5	0.65	0.39		62	3.6								
Cc1ncsc1-c1ccc([C@H](C)NC(=O)[C@@H]2C[C@@H](O)CN2C(=O)[C@@H](c2cc(OCCN3CCN(CCOc4cc(N5C6CCC5CN(c5cc(-c7ccccc7O)nnc5N)C6)ccn4)CC3)no2)C(C)C)cc1	0.016			1.5	0.72	0.068		7	0.17					22	6	0.33	
Cc1ncsc1-c1ccc([C@H](C)NC(=O)[C@@H]2C[C@@H](O)CN2C(=O)[C@@H](c2cc(OCCN3CCN(CCOc4cc(N5C6CCC5CN(c5cc(-c7ccccc7O)nnc5N)C6)ccn4)[C@H](C)C3)no2)C(C)C)cc1	0.015	0	0	0.71	0.83	0.055		12	0.26			76	22	13			
Cc1ncsc1-c1ccc([C@H](C)NC(=O)[C@@H]2C[C@@H](O)CN2C(=O)[C@@H](c2cc(N3CCC(CN4CCC(O[C@H]5C[C@H](Oc6cc(N7C8CCC7CN(c7cc(-c9ccccc9)nnc7N)C8)ccn6)C5)CC4)CC3)no2)C(C)C)cc1									> 5000								8540
Cc1ncsc1-c1ccc([C@H](C)NC(=O)[C@@H]2C[C@@H](O)CN2C(=O)[C@@H](c2cc(OCCN3CCC(O[C@H]4C[C@H](Oc5cc(N6C7CCC6CN(c6cc(-c8ccccc8)nnc6N)C7)ccn5)C4)CC3)no2)C(C)C)cc1									> 5000								10300
Cc1ncsc1-c1ccc([C@H](C)NC(=O)[C@@H]2C[C@H](O)CN2C(=O)[C@@H](c2cc(OCCN3CCC(O[C@H]4C[C@H](Oc5cc(N6C7CCC6CN(c6cc(-c8ccccc8O)nnc6N)C7)ccn5)C4)CC3)no2)C(C)C)cc1									> 300								
Cc1ncsc1-c1ccc([C@H](C)NC(=O)[C@@H]2C[C@H](O)CN2C(=O)[C@@H](c2cc(N3CCC(CN4CCC(O[C@H]5C[C@H](Oc6cc(N7C8CCC7CN(c7cc(-c9ccccc9O)nnc7N)C8)ccn6)C5)CC4)CC3)no2)C(C)C)cc1									> 300								
Cc1ncsc1-c1ccc([C@H](C)NC(=O)[C@@H]2C[C@@H](O)CN2C(=O)[C@@H](c2cc(N3CCN(C[C@H]4C[C@H](Oc5cc(N6C7CCC6CN(c6cc(-c8ccccc8O)nnc6N)C7)ccn5)C4)CC3)no2)C(C)C)cc1	0.011	87	53	1.3	0.27	0.09	3.7	6.8	0.45	11		75					
Cc1ncsc1-c1ccc([C@H](C)NC(=O)[C@@H]2C[C@@H](O)CN2C(=O)[C@@H](c2cc(OCC#Cc3ccc(O[C@H]4C[C@H](Oc5cc(N6C7CCC6CN(c6cc(-c8ccccc8O)nnc6N)C7)ccn5)C4)cn3)no2)C(C)C)cc1	0.016			5.1	0.15	27	1.5	28	0.7	22			129	19			

From ChEMBL document CHEMBL5537166, “PROTACs Targeting BRM (SMARCA2) Afford Selective In Vivo Degradation over BRG1 (SMARCA4) and Are Active in BRG1 Mutant Xenograft Tumor Models” (J Med Chem, 2024)
